Test [1] relates to Phosphorylation of ERK1/2 in A-427 cells. Nature of the test: Phospho-ERK1/2 MSD Assay (A-427 cells). Type of test: cell-based. The note with it: Homo sapiens, 2 h treatment, read-out: p-ERK (A427 cells) IC50. In short, it runs like this:
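ERK1/2 phosphorylation measured by Meso Scale whole-cell lysate assay after A-427 cells were exposed to a titration of compound for 2 h at 37 °C.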

The test system of test [2] is Phosphorylation of ERK1/2 in AsPC-1 cells. Kind of test: Phospho-ERK1/2 MSD Assay (AsPC-1 cells). Type of test: cell-based. Conditions: Homo sapiens, read-out: p-ERK (AsPC-1 cells) IC50. The method, boiled down:
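Read-out: MSD electrochemiluminescent detection of phosphorylated ERK1/2 in whole-cell lysates, fitted to a 4-parameter logistic curve for IC50. Prior to lysis, AsPC-1 cells (25,000 per well) received a 2 h compound dose-response at 37 °C.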

Test [3] deals with GDP-bound KRAS protein (aa 1-169), containing both G12D and C118A amino acid substitutions (Homo sapiens, UniProt P01116, C118A/G12D). Kind of test: KRAS G12D Coupled Nucleotide Exchange Assay. Type of test: biochemical. The note with it: 2 h compound pre-incubation. The procedure: Following compound pre-incubation, purified SOS protein (aa 564-1049) and GTP (Roche 10106399001) were added to the assay wells and incubated for an additional 30 min. […] The assay plates were then read on a PerkinElmer EnVision Multilabel Reader, using AlphaScreen® technology, and data were analyzed using a 4-parameter logistic model to calculate IC50 values.

The target of test [4] is His-tagged KRAS G12D protein (Homo sapiens, UniProt P01116, G12D). Nature of the test: KRAS G12D TR-FRET Assay. Format: binding.

Like-named read-outs stand apart in the source and are kept apart here.

GDP-bound KRAS protein (aa 1-169), containing both G12D and C118A amino acid substitutions, sequence (P01116 1-169 isoform P01116-2 G12D/C118A): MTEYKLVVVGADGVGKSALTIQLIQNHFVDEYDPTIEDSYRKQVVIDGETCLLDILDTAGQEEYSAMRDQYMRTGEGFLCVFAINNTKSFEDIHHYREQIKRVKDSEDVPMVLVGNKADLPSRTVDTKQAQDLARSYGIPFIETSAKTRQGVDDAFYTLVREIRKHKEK
His-tagged KRAS G12D protein, sequence (P01116 1-188 isoform P01116-2 G12D): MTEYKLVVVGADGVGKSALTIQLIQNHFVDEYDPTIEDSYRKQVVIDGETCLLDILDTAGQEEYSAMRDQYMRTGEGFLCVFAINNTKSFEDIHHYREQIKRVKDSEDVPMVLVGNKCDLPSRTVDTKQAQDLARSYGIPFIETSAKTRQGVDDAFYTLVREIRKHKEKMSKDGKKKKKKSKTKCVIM

Regarding `CCc1c(F)ccc2cc(O)cc(-c3ccc4c(N5C[C@@H]6CC[C@H]5CN6)nc(OC[C@@]56CCCN5C[C@H](F)C6)nc4c3C)c12` [Example 92, 4-(4-((1S,4S)-2,5-diazabicyclo[2.2. 2]octan-2-yl)-2-(((2R,7aS)-2-fluorotetrahydro-1H-pyrrolizin-7a(5H)-yl)methoxy)-8-methylquinazolin-7-yl)-5-ethyl-6-fluoronaphthalen-2-ol], the half-inhibitory concentration (IC50) in test [1] (A-427, 2 h) is 880 nM; in test [2] (ASPC1, 2 h, 2 hours treatment) it was 829 nM; in test [4] it was 24 nM. The “Avg 2 h Coupled Exchange IC50” value in test [3] was found to be 33 nM.
As for `CCc1c(F)ccc2cc(O)cc(-c3c(F)cc4c(N5C[C@@H]6CC[C@H]5CN6)nc(OC[C@@]56CCCN5C[C@H](F)C6)nc4c3F)c12` [Example 93, 4-(4-((1S,4S)-2,5-diazabicyclo[2.2. 2]octan-2-yl)-6,8-difluoro-2-(((2R,7aS)-2-fluorotetrahydro-1H-pyrrolizin-7a(5H)-yl)methoxy)quinazolin-7-yl)-5-ethyl-6-fluoronaphthalen-2-ol], the IC50 in test [1] (A-427, 2 h) amounted to 6 nM; in test [2] (ASPC1, 2 h, 2 hours treatment), 9 nM; in test [4], 5 nM. For the same molecule, in test [3], the “Avg 2 h Coupled Exchange IC50” value was determined as 6 nM.
`CCc1c(F)ccc2cc(O)cc(-c3c(F)cc4c(N5C[C@@H]6CC[C@H]5CN6)nc(OC[C@@H]5C[C@@H](F)CN5C)nc4c3F)c12` [Example 94, 4-(4-((1S,4S)-2,5-diazabicyclo[2.2. 2]octan-2-yl)-6,8-difluoro-2-(((2S,4R)-4-fluoro-1-methylpyrrolidin-2-yl)methoxy)quinazolin-7-yl)-5-ethyl-6-fluoronaphthalen-2-ol]: the half-maximal inhibitory concentration (IC50) was 110 nM in test [1] (A-427, 2 h); 152 nM in test [2] (ASPC1, 2 h, 2 hours treatment); 5 nM in test [4]. Besides, the “Avg 2 h Coupled Exchange IC50” value in test [3] is 4 nM.
Regarding `CCc1c(F)ccc2cc(O)cc(-c3ccc4c(N5C[C@H]6CC[C@@H](C5)N6)nc(OC[C@@]56CCCN5C[C@H](F)C6)nc4c3C)c12` [Example 95, 4-(4-((1R,5S)-3,8-diazabicyclo[3.2. 1]octan-3-yl)-2-(((2R,7aS)-2-fluorotetrahydro-1H-pyrrolizin-7a(5H)-yl)methoxy)-8-methylquinazolin-7-yl)-5-ethyl-6-fluoronaphthalen-2-ol], the IC50 came to 199 nM in test [1] (A-427, 2 h); 230 nM in test [2] (ASPC1, 2 h, 2 hours treatment); 10 nM in test [4]. Further, the “Avg 2 h Coupled Exchange IC50” value in test [3] was determined as 10 nM.
With `Cc1c(-c2cc(O)cc3cccc(Cl)c23)ccc2c(N3C[C@@H]4CC[C@H]3CN4)nc(OC[C@@]34CCCN3C[C@H](F)C4)nc12` [Example 96, 4-(4-((1S,4S)-2,5-diazabicyclo[2.2. 2]octan-2-yl)-2-(((2R,7aS)-2-fluorotetrahydro-1H-pyrrolizin-7a(5H)-yl)methoxy)-8-methylquinazolin-7-yl)-5-chloronaphthalen-2-ol], the 50% inhibitory concentration (IC50) worked out at 95 nM in test [1] (A-427, 2 h); 213 nM in test [2] (ASPC1, 2 h, 2 hours treatment); 7 nM in test [4]. For the same molecule, the “Avg 2 h Coupled Exchange IC50” value in test [3] was determined as 5 nM.
For the molecule `Cc1c(-c2cc(O)cc3ccc(F)c(F)c23)ccc2c(N3C[C@H]4CC[C@@H](C3)N4)nc(OC[C@@]34CCCN3C[C@H](F)C4)nc12` [Example 97, 4-(4-((1R,5S)-3,8-diazabicyclo[3.2. 1]octan-3-yl)-2-(((2R,7aS)-2-fluorotetrahydro-1H-pyrrolizin-7a(5H)-yl)methoxy)-8-methylquinazolin-7-yl)-5,6-difluoronaphthalen-2-ol], the IC50 in test [1] (A-427, 2 h) came to 69 nM; in test [2] (ASPC1, 2 h, 2 hours treatment) it was 178 nM; in test [4], 6 nM. Further, the “Avg 2 h Coupled Exchange IC50” value in test [3] stood at 6 nM.
For `Cc1c(-c2cc(O)cc3cccc(Cl)c23)ccc2c(N3[C@@H]4CC[C@H]3CNC4)nc(OC[C@@]34CCCN3C[C@H](F)C4)nc12` [Example 98, 4-(4-((1R,5S)-3,8-diazabicyclo[3.2. 1]octan-8-yl)-2-(((2R,7aS)-2-fluorotetrahydro-1H-pyrrolizin-7a(5H)-yl)methoxy)-8-methylquinazolin-7-yl)-5-chloronaphthalen-2-ol], the concentration for half-maximal inhibition (IC50) in test [1] (A-427, 2 h) was found to be 587 nM; in test [2] (ASPC1, 2 h, 2 hours treatment) it was 1050 nM; in test [4], 13 nM. Moreover, the “Avg 2 h Coupled Exchange IC50” value in test [3] stood at 13 nM.
With `C#Cc1cccc2cc(O)cc(-c3ccc4c(N5[C@@H]6CC[C@H]5CNC6)nc(OC[C@@]56CCCN5C[C@H](F)C6)nc4c3F)c12` [Example 99, 4-(4-((1R,5S)-3,8-Diazabicyclo[3.2.1]octan-8-yl)-8-fluoro-2-(((2R,7aS)-2-fluorotetrahydro-1H-pyrrolizin-7a(5H)-yl)methoxy)quinazolin-7-yl)-5-ethynylnaphthalen-2-ol], the IC50 is 5 nM in test [1] (A-427, 2 h); 19 nM in test [2] (ASPC1, 2 h, 2 hours treatment); 3 nM in test [4]. Further, in test [3], the “Avg 2 h Coupled Exchange IC50” value was 3 nM.
As to `C#Cc1cccc2cccc(-c3c(F)cc4c(N5[C@@H]6CC[C@H]5CNC6)nc(OC[C@@]56CCCN5C[C@H](F)C6)nc4c3F)c12` [Example 100, 4-((1R,5S)-3,8-Diazabicyclo[3.2.1]octan-8-yl)-7-(8-ethynylnaphthalen-1-yl)-6,8-difluoro-2-(((2R,7aS)-2-fluorotetrahydro-1H-pyrrolizin-7a(5H)-yl)methoxy)quinazoline], the IC50 in test [1] (A-427, 2 h) turned out to be 945 nM; in test [2] (ASPC1, 2 h, 2 hours treatment), 663 nM; in test [4], 8 nM. For the same molecule, the “Avg 2 h Coupled Exchange IC50” value in test [3] was 6 nM.
For the molecule `Fc1cc2c(N3[C@@H]4CC[C@H]3CNC4)nc(OC[C@@]34CCCN3C[C@H](F)C4)nc2c(F)c1-c1cncc2cccc(Cl)c12` [Example 101, 4-((1R,5S)-3,8-Diazabicyclo[3.2.1]octan-8-yl)-7-(5-chloroisoquinolin-4-yl)-6,8-difluoro-2-(((2R,7aS)-2-fluorotetrahydro-1H-pyrrolizin-7a(5H)-yl)methoxy)quinazoline], the half-inhibitory concentration (IC50) in test [1] was determined as 2920 nM; in test [2] (ASPC1, 2 hours treatment) it was 1710 nM; in test [4], 70 nM. Also, the “Avg 2 h Coupled Exchange IC50” value in test [3] is 35 nM.
Regarding `CCc1cccc2cc(O)cc(-c3c(F)cc4c(N5C[C@@H]6CC[C@H]5CN6)nc(OC[C@@]56CCCN5C[C@H](F)C6)nc4c3F)c12` [Example 109, 4-(4-((1S,4S)-2,5-Diazabicyclo[2.2.2]octan-2-yl)-6,8-difluoro-2-(((2R,7aS)-2-fluorotetrahydro-1H-pyrrolizin-7a(5H)-yl)methoxy)quinazolin-7-yl)-5-ethylnaphthalen-2-ol], the IC50 was 17 nM in test [1] (A-427, 2 h); 29 nM in test [2] (ASPC1, 2 h, 2 hours treatment); 4 nM in test [4]. Moreover, the “Avg 2 h Coupled Exchange IC50” value in test [3] amounted to 3 nM.
With `CCc1cccc2cc(O)cc(-c3ccc4c(N5C[C@@H]6CC[C@H]5CN6)nc(OC[C@@]56CCCN5C[C@H](F)C6)nc4c3F)c12` [Example 110, 4-(4-((1S,4S)-2,5-diazabicyclo[2.2.2]octan-2-yl)-8-fluoro-2-(((2R,7aS)-2-fluorotetrahydro-1H-pyrrolizin-7a(5H)-yl)methoxy)quinazolin-7-yl)-5-ethylnaphthalen-2-ol], the IC50 in test [1] (A-427, 2 h) was determined as 10 nM; in test [2] (ASPC1, 2 h, 2 hours treatment), 26 nM; in test [4], 4 nM. Further, in test [3], the “Avg 2 h Coupled Exchange IC50” value worked out at 3 nM.
For the molecule `CCc1c(F)ccc2cc(O)cc(-c3ccc4c(N5CC6CCC(C5)N6)nc(OC[C@@]56CCCN5C[C@H](F)C6)nc4c3)c12` [Example 111], the IC50 was determined as 28 nM in test [1] (A-427, 2 h); 51 nM in test [2] (ASPC1, 2 h, 2 hours treatment); 2 nM in test [4]. The “Avg 2 h Coupled Exchange IC50” value in test [3] is 1 nM.
Taken in the same sequence, the figures for `CCc1c(F)ccc2cc(O)cc(-c3ccc4c(N5C[C@@H]6CC[C@H]5CN6)nc(OC[C@@]56CCCN5C[C@H](F)C6)nc4c3)c12` [Example 112, 4-(4-((1S,4S)-2,5-diazabicyclo[2.2.2]octan-2-yl)-2-(((2R,7aS)-2-fluorotetrahydro-1H-pyrrolizin-7a(5H)-yl)methoxy)quinazolin-7-yl)-5-ethyl-6-fluoronaphthalen-2-ol] were 37 nM, 90 nM, 2 nM and 2 nM.
As to `Oc1cc(-c2ccc3c(N4C[C@@H]5CC[C@H]4CN5)nc(OC[C@@]45CCCN4C[C@H](F)C5)nc3c2)c2c(F)c(F)ccc2c1` [Example 113, 4-(4-((1S,4S)-2,5-diazabicyclo[2.2.2]octan-2-yl)-2-(((2R,7aS)-2-fluorotetrahydro-1H-pyrrolizin-7a(5H)-yl)methoxy)quinazolin-7-yl)-5,6-difluoronaphthalen-2-ol], the 50% inhibitory concentration (IC50) is 102 nM in test [1] (A-427, 2 h); 453 nM in test [2] (ASPC1, 2 h, 2 hours treatment); 3 nM in test [4]. For the same molecule, the “Avg 2 h Coupled Exchange IC50” value in test [3] was 2 nM.
Regarding `Nc1ccc(C2CC2)c(-c2c(F)cc3c(N4C[C@H]5CC[C@@H](C4)N5)nc(OC[C@@]45CCCN4C[C@H](F)C5)nc3c2F)c1` [Example 114, 3-(4-((1R,5S)-3,8-diazabicyclo[3.2.1]octan-3-yl)-6,8-difluoro-2-(((2R,7aS)-2-fluorotetrahydro-1H-pyrrolizin-7a(5H)-yl)methoxy)quinazolin-7-yl)-4-cyclopropylaniline], the IC50 was found to be 985 nM in test [1] (A-427, 2 h); 1420 nM in test [2] (ASPC1, 2 h, 2 hours treatment); 16 nM in test [4]. Besides, the “Avg 2 h Coupled Exchange IC50” value in test [3] was 4 nM.

For the origin of these results see patent publication US20250059205A1, “Heterocyclic Compounds and Methods of Use” (AMGEN INC., priority 2021, published 2025).
